Measurements as given in patent US20190309272A1, “Genetically Modified Cell Lines Including a TP53 Modification and Methods of Use” (UNIVERSITY OF SOUTH CAROLINA, priority 2018, published 2019).
Structures can show the parent of a compound that is named as a salt. Where two headings read alike, the source gives them in different places.

What was measured:
Format in all cases: cell-based, Human
[1] = system: MCF7 TP53 KO 5.6 pool; experiment: Drug screening, resazurin, TP53 KO 5.6 pool
[2] = system: MCF7 TP53 KO 3.4 pool; experiment: Drug screening, resazurin, TP53 KO 3.4 pool
[3] = system: MCF7 WT Parental pool; experiment: Drug screening, resazurin, MCF7 wild type parental pool
[4] = ten-day drug treatment, 156.25 nM to 10 μM, resazurin fluorescence

Row | SMILES | TP53 KO 5.6 pool (AUC) [1, 4] | TP53 KO 3.4 pool (AUC) [2, 4] | MCF7 WT Parental pool (AUC) [3, 4] | TP53 KO 5.6 pool (AUC) [1] | TP53 KO 3.4 pool (AUC) [2] | MCF7 WT Parental pool (AUC) [3]
1 | C[C@]12CC[C@H](O)CC1=CC[C@@H]1[C@@H]2CC[C@]2(C)C(c3cccnc3)=CC[C@@H]12 [Abiraterone] | 9.254 | 8.785 | 8.378 |  |  | 
2 | CN(C)C/C=C/C(=O)Nc1cc2c(Nc3ccc(F)c(Cl)c3)ncnc2cc1O[C@H]1CCOC1 [Afatanib] | 2.139 | 2.48 | 2.734 |  |  | 
3 | CCc1cc2c(cc1N1CCC(N3CCOCC3)CC1)C(C)(C)c1[nH]c3cc(C#N)ccc3c1C2=O [Alectinib] | 2.7 | 4.51 | 5.763 |  |  | 
4 | CN(C)c1nc(N(C)C)nc(N(C)C)n1 [Altretamine] | 8.473 | 8.874 | 8.059 |  |  | 
5 | NCCCNCCSP(=O)(O)O [Amifostine] | 9.73 | 9.108 | 8.456 |  |  | 
6 | NCC(=O)CCC(=O)O [Aminolevulinic Acid] | 8.787 | 9.101 | 8.749 |  |  | 
7 | CC(C)(C#N)c1cc(Cn2cncn2)cc(C(C)(C)C#N)c1 [Anastrozole] | 8.828 | 8.067 | 8.01 |  |  | 
8 | CNC(=O)c1ccccc1Sc1ccc2c(/C=C/c3ccccn3)n[nH]c2c1 [Axitinib] | 3.786 | 3.743 | 2.581 |  |  | 
9 | Nc1ncn([C@@H]2O[C@H](CO)[C@@H](O)[C@H]2O)c(=O)n1 [Azactidine] | 6.373 | 9.05 | 8.861 |  |  | 
10 | O=C(/C=C/c1cccc(S(=O)(=O)Nc2ccccc2)c1)NO [Belinostat] | 1.322 | 1.525 | 1.423 |  |  | 
11 | Cn1c(CCCC(=O)O)nc2cc(N(CCCl)CCCl)ccc21 [Bendamustine Hydrochloride] |  |  |  | 10.23 | 9.503 | 9.021
12 | CC(C)C[C@H](NC(=O)[C@H](Cc1ccccc1)NC(=O)c1cnccn1)B(O)O [Bortezomib] | 0.7486 | 0.673 | 0.6974 |  |  | 
13 | COc1cc(Nc2c(C#N)cnc3cc(OCCCN4CCN(C)CC4)c(OC)cc23)c(Cl)cc1Cl [Bosutinib] | 9.588 | 9.254 | 8.686 |  |  | 
14 | CS(=O)(=O)OCCCCOS(C)(=O)=O [Busulfan] | 8.834 | 9.336 | 9.118 |  |  | 
15 | CO[C@H]1C(=O)[C@]2(C)[C@@H](OC)C[C@H]3OC[C@@]3(OC(C)=O)[C@H]2[C@H](OC(=O)c2ccccc2)[C@]2(O)C[C@H](OC(=O)[C@H](O)[C@@H](NC(=O)OC(C)(C)C)c3ccccc3)C(C)=C1C2(C)C [Cabazitaxel] | 1.713 | 1.658 | 1.406 |  |  | 
16 | COc1cc2nccc(Oc3ccc(NC(=O)C4(C(=O)Nc5ccc(F)cc5)CC4)cc3)c2cc1OC [Cabozantinib] | 4.52 | 4.376 | 4.126 |  |  | 
17 | CCCCCOC(=O)Nc1nc(=O)n([C@@H]2O[C@H](C)[C@@H](O)[C@H]2O)cc1F [Capecitabine] | 9.284 | 9.208 | 9.004 |  |  | 
18 | N.N.O=C([O-])C1(C(=O)[O-])CCC1.[Pt+2] [Carboplatin] | 8.343 | 9.302 | 8.83 |  |  | 
19 | CC(C)C[C@H](NC(=O)[C@H](CCc1ccccc1)NC(=O)CN1CCOCC1)C(=O)N[C@@H](Cc1ccccc1)C(=O)N[C@@H](CC(C)C)C(=O)[C@@]1(C)CO1 [Carfilzomib] | 0.6678 | 0.6462 | 0.6359 |  |  | 
20 | O=NN(CCCl)C(=O)NCCCl [Carmustine] | 9.965 | 9.826 | 9.622 |  |  | 
21 | Cc1cc(Nc2ncc(Cl)c(Nc3ccccc3S(=O)(=O)C(C)C)n2)c(OC(C)C)cc1C1CCNCC1 [Ceritinib] | 1.421 | 1.482 | 1.637 |  |  | 
22 | O=C(O)CCCc1ccc(N(CCCl)CCCl)cc1 [Chlorambucil] | 17.6 | 16.5 | 16.08 |  |  | 
23 | N.N.[Cl][Pt][Cl] [Cisplatin] | 7.44 | 6.27 | 7.335 |  |  | 
